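1) Cells in 96-well plates. 2) Compound, 48 h, 5 concentrations. 3) Linear interpolation between surrounding doses. 4) Unreached endpoint = highest concentration. GI50 is the concentration that inhibits growth by half. TGI: total growth inhibition.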
Experiments:
Assay in all cases: inhibition of tumour cell growth, NCI panel, 48 h
[1] = system: 786-0 renal
[2] = system: A498 renal
[3] = system: A549 NSCLC
[4] = system: ACHN renal
[5] = system: BT-549 breast
[6] = system: CAKI-1 renal
[7] = system: CCRF-CEM leukemia
[8] = system: COLO 205 colon
[9] = system: DU-145 prostate
[10] = system: EKVX NSCLC
[11] = system: HCC-2998 colon
[12] = system: HCT-116 colon
[13] = system: HCT-15 colon
[14] = system: HL-60(TB) leukemia
[15] = system: HOP-62 NSCLC
[16] = system: HOP-92 NSCLC
[17] = system: HS 578T breast
[18] = system: HT29 colon
[19] = system: IGROV1 ovarian
[20] = system: K-562 leukemia
[21] = system: KM12 colon
[22] = system: LOX IMVI melanoma
[23] = system: M14 melanoma
[24] = system: MALME-3M melanoma
[25] = system: MCF7 breast
[26] = system: MDA-MB-231 breast
[27] = system: MDA-MB-435
[28] = system: MOLT-4 leukemia
[29] = system: NCI-H226 lung
[30] = system: NCI-H23 lung
[31] = system: NCI-H460 lung
[32] = system: NCI-H522 lung
[33] = system: NCI/ADR-RES ovarian
[34] = system: OVCAR-3 ovarian
[35] = system: OVCAR-4 ovarian
[36] = system: OVCAR-5 ovarian
[37] = system: OVCAR-8 ovarian
[38] = system: PC-3 prostate
[39] = system: RPMI-8226 leukemia
[40] = system: RXF 393 renal
[41] = system: SF-268 CNS
[42] = system: SF-295 CNS
[43] = system: SF-539 CNS
[44] = system: SK-MEL-2 melanoma
[45] = system: SK-MEL-28 melanoma
[46] = system: SK-MEL-5 melanoma
[47] = system: SK-OV-3 ovarian
[48] = system: SN12C renal
[49] = system: SNB-19 CNS
[50] = system: SNB-75 CNS
[51] = system: SR leukemia
[52] = system: SW-620 colon
[53] = system: T-47D breast
[54] = system: TK-10 renal
[55] = system: U251 CNS
[56] = system: UACC-257 melanoma
[57] = system: UACC-62 melanoma
[58] = system: UO-31 renal

Which results are given for `CCC(CC)n1c(=O)c(SC2=NC3C(NN2)N(CC)C(=O)N3CC)c(C(=O)O)c2ccccc21` (configuration not stated)?
GI50 [1]: 1530 nM; TGI [1]: > 100000 nM; GI50 [2]: 33700 nM; TGI [2]: > 87200 nM; GI50 [3]: 1510 nM; TGI [3]: > 100000 nM; GI50 [4]: 1580 nM; TGI [4]: > 100000 nM; GI50 [5]: 1470 nM; TGI [5]: 6720 nM; GI50 [6]: 1220 nM; TGI [6]: 32300 nM; GI50 [7]: 1130 nM; TGI [7]: > 100000 nM; GI50 [8]: 771 nM; TGI [8]: 1830 nM; GI50 [9]: 1300 nM; TGI [9]: > 100000 nM; GI50 [10]: 6670 nM; TGI [10]: > 100000 nM; GI50 [11]: 1080 nM; GI50 [12]: 1010 nM; TGI [12]: > 33700 nM; GI50 [13]: 969 nM; TGI [13]: > 100000 nM; GI50 [14]: 767 nM; TGI [14]: 2300 nM; GI50 [15]: 1460 nM; TGI [15]: > 57000 nM; GI50 [16]: 18300 nM; TGI [16]: > 100000 nM; GI50 [17]: 1220 nM; TGI [17]: 99200 nM; GI50 [18]: 909 nM; GI50 [19]: 1500 nM; TGI [19]: > 100000 nM; GI50 [20]: 1000 nM; TGI [20]: > 100000 nM; GI50 [21]: 1200 nM; TGI [21]: > 100000 nM; GI50 [22]: 1260 nM; TGI [22]: > 100000 nM; GI50 [23]: 1050 nM; TGI [23]: > 55200 nM; GI50 [24]: 2660 nM; TGI [24]: > 100000 nM; GI50 [25]: 1030 nM; TGI [25]: > 100000 nM; GI50 [26]: 1270 nM; TGI [26]: > 71900 nM; GI50 [27]: 2030 nM; TGI [27]: 5010 nM; GI50 [28]: 1150 nM; TGI [28]: > 48200 nM; GI50 [29]: 1110 nM; TGI [29]: 5780 nM; GI50 [30]: 3590 nM; TGI [30]: > 100000 nM; GI50 [31]: 1110 nM; TGI [31]: > 54100 nM; GI50 [32]: 578 nM; TGI [32]: 1460 nM; GI50 [33]: 974 nM; GI50 [34]: 966 nM; TGI [34]: 3490 nM; GI50 [35]: 6560 nM; TGI [35]: > 100000 nM; GI50 [36]: 1280 nM; TGI [36]: > 100000 nM; GI50 [37]: 1050 nM; GI50 [38]: 1250 nM; TGI [38]: > 100000 nM; GI50 [39]: 3760 nM; TGI [39]: > 100000 nM; GI50 [40]: 805 nM; TGI [40]: 3280 nM; GI50 [41]: 2030 nM; TGI [41]: > 100000 nM; GI50 [42]: 1020 nM; TGI [42]: > 46800 nM; GI50 [43]: 811 nM; TGI [43]: 2380 nM; GI50 [44]: 1080 nM; TGI [44]: > 55000 nM; GI50 [45]: 2200 nM; TGI [45]: > 100000 nM; GI50 [46]: 1380 nM; TGI [46]: 7640 nM; GI50 [47]: 1450 nM; TGI [47]: > 94100 nM; GI50 [48]: 1310 nM; TGI [48]: > 100000 nM; GI50 [49]: 1660 nM; TGI [49]: > 100000 nM; GI50 [50]: 1210 nM; TGI [50]: > 33400 nM; GI50 [51]: 805 nM; TGI [51]: > 49000 nM; GI50 [52]: 1480 nM; TGI [52]: > 100000 nM; GI50 [53]: 6140 nM; TGI [53]: > 100000 nM; GI50 [54]: 14500 nM; TGI [54]: > 89800 nM; GI50 [55]: 1130 nM; TGI [55]: > 100000 nM; GI50 [56]: 5530 nM; TGI [56]: > 100000 nM; GI50 [57]: 1200 nM; TGI [57]: 36500 nM; GI50 [58]: 1540 nM; TGI [58]: > 100000 nM
